Data published in PubChem BioAssay AID256 (DTP/NCI, 2004).
Values joined by “and” are separate entries in the source; they are usually repeats but may differ in a detail not shown here. Equal values may be shown once. Toxic doses and inconclusive results are not listed. The calls were made as follows: active = survival T/C of 150% or more; inactive = T/C below 125% in these data.

Test system: CD2F1 mice, L1210 leukemia ip, survival T/C
Experiment: NCI In Vivo Anticancer Drug Screen. Data for tumor model L1210 Leukemia (intraperitoneal) in CD2F1 (CDF1) mice
Details: endpoint: mean survival time, higher = longer survival
Method in brief: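 Mice carrying a transplanted tumor received test compound or vehicle alone. The value is the measurement in the treated group divided by that in the vehicle-treated control group.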

[1] = dose: 100.0 mg/kg/injection, schedule: Q01DX009 (ip), vehicle: saline with Tween-80
[2] = dose: 200.0 mg/kg/injection, schedule: Q01DX009 (ip), vehicle: saline with Tween-80
[3] = dose: 400.0 mg/kg/injection, schedule: Q01DX009 (ip), vehicle: saline with Tween-80
[4] = dose: 100.0 mg/kg/injection, schedule: Q04DX003 (ip), vehicle: saline with Tween-80
[5] = dose: 200.0 mg/kg/injection, schedule: Q04DX003 (ip), vehicle: saline with Tween-80
[6] = dose: 400.0 mg/kg/injection, schedule: Q04DX003 (ip), vehicle: saline with Tween-80

Measured: T/C

CCC1(CC)C=CC(Br)CC1(CC)CC (centres undefined)
inactive: [1] 101 % of control | [2] 113 % of control | [3] 98 % of control

CC([NH-])C(=O)O.[Cl][Pt][Cl] (centres undefined)
inactive: dose: 25.0 mg/kg/injection, schedule: Q04DX003 (ip), vehicle: saline 121 % of control | dose: 50.0 mg/kg/injection, schedule: Q04DX003 (ip), vehicle: saline 110 % of control

O=C(c1ccccc1)C1C(C(=O)c2ccccc2)C1c1ccccc1 (centres undefined)
inactive: dose: 100.0 mg/kg/injection, schedule: Q01DX001 (ip), vehicle: saline with Tween-80 87 % of control | dose: 200.0 mg/kg/injection, schedule: Q01DX001 (ip), vehicle: saline with Tween-80 90 % of control | dose: 400.0 mg/kg/injection, schedule: Q01DX001 (ip), vehicle: saline with Tween-80 93 % of control

NC(C(=O)O)C(O)c1cnc[nH]1 (centres undefined)
inactive: dose: 12.5 mg/kg/injection, schedule: Q01DX009 (ip), vehicle: water 96 % of control | dose: 25.0 mg/kg/injection, schedule: Q01DX009 (ip), vehicle: water 100 % of control | dose: 50.0 mg/kg/injection, schedule: Q01DX009 (ip), vehicle: water 100 % of control | dose: 100.0 mg/kg/injection, schedule: Q01DX009 (ip), vehicle: water 104 % of control | dose: 200.0 mg/kg/injection, schedule: Q01DX009 (ip), vehicle: water 102 % of control

CN(Cc1ccccc1)c1ccc2nc(N)nc(N)c2c1
inactive: [4] 103 % of control | [5] 110 % of control

CC1(C)CCC(CC(=O)O)(CC(=O)O)CC1
inactive: [1] 105 % of control | [2] 104 % of control | [3] 104 % of control

CCCCCC(C[N+](C)(C)C)C(=O)/C=C/c1ccc(Cl)cc1 (centres undefined)
inactive: dose: 12.0 mg/kg/injection, schedule: Q01DX009 (ip), vehicle: Klucel (hydroxypropylcellulose) (HPC) 96 % of control | dose: 25.0 mg/kg/injection, schedule: Q01DX009 (ip), vehicle: Klucel (hydroxypropylcellulose) (HPC) 96 % of control | dose: 50.0 mg/kg/injection, schedule: Q01DX009 (ip), vehicle: Klucel (hydroxypropylcellulose) (HPC) 96 % of control

COC1NC(=O)NC(=O)C1=[N+]=[N-] (centres undefined)
inactive: dose: 2.5 mg/kg/injection, schedule: Q01DX009 (ip), vehicle: saline with Tween-80 113 % of control

NC(=O)c1c(F)cccc1Cl
inactive: [1] 102 % of control | [4] 101 % of control | [2] 105 % of control | [5] 98 % of control | [3] 102 % of control | [6] 106 % of control

COC(=O)C1C2CC(C(Br)C2Br)C1C(=O)O (centres undefined)
inactive: [1] 96 % of control | [4] 96 % of control | [2] 98 % of control | [5] 96 % of control and 94 % of control | [3] 97 % of control | [6] 88 % of control and 98 % of control

COC(=O)C(C)=O
inactive: dose: 100.0 mg/kg/injection, schedule: Q04DX003 (ip), vehicle: saline 97 % of control | dose: 200.0 mg/kg/injection, schedule: Q04DX003 (ip), vehicle: saline 100 % of control | dose: 400.0 mg/kg/injection, schedule: Q04DX003 (ip), vehicle: saline 102 % of control

O=C1C(Cl)=C(Nc2cccc(Cl)c2)C(=O)c2ccccc21
inactive: dose: 100.0 mg/kg/injection, schedule: Q04DX002 (ip), vehicle: other 90 % of control | dose: 200.0 mg/kg/injection, schedule: Q04DX002 (ip), vehicle: other 94 % of control | dose: 400.0 mg/kg/injection, schedule: Q04DX002 (ip), vehicle: other 105 % of control

O=[N+]([O-])c1ccc(/C=C/C=C\c2cccc(S(=O)(=O)F)c2)c(Cl)c1
inactive: dose: 100.0 mg/kg/injection, schedule: Q01DX009 (ip), vehicle: acetone 100 % of control | [4] 102 % of control | dose: 200.0 mg/kg/injection, schedule: Q01DX009 (ip), vehicle: acetone 104 % of control | [5] 97 % of control | dose: 400.0 mg/kg/injection, schedule: Q01DX009 (ip), vehicle: acetone 104 % of control | [6] 94 % of control

COc1nc2c(N)ncnc2n1C1OC(CO)C(O)C1O (centres undefined)
inactive: dose: 100.0 mg/kg/injection, schedule: Q04DX002 (ip), vehicle: saline with Tween-80 103 % of control | dose: 200.0 mg/kg/injection, schedule: Q04DX002 (ip), vehicle: saline with Tween-80 103 % of control | dose: 400.0 mg/kg/injection, schedule: Q04DX002 (ip), vehicle: saline with Tween-80 96 % of control
